# Laboratory results as given in patent US20260262643A1, “HERBICIDAL BENZOXAZINES” (FMC CORPORATION, priority 2022, published 2026).
# Experiments:
# [1] = test system: kochia; assay: Test C postemergence; type: in vivo, Bassia scoparia; settings: 10 days, 0 to 100 scale (0 no effect, 100 complete control)
# In short: (§1)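 Soil-applied (pre) and foliar (post, 1–2 leaf, 2–10 cm) sprays; surfactant-containing non-phytotoxic solvent vehicle; loam/sand substrate. Readout: visual % control at 10 d, greenhouse, versus untreated.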
# [2] = test system: ragweed; assay: Test C postemergence; type: in vivo, Ambrosia artemisiifolia; settings: 10 days, 0 to 100 scale (0 no effect, 100 complete control)
# In short: as §1
# [3] = test system: foxtail, giant; assay: Test C preemergence; type: in vivo, Setaria faberi
# Description: (§2) Seeds of plant species selected from barnyardgrass (Echinochloa crusgalli), blackgrass (Alopecurus myosuroides), corn (Zea mays), foxtail, giant (giant foxtail, Setaria faberi), green foxtail (Setaria viridis), goosegrass (Eleusine indica), kochia (Bassia scoparia), oat, wild (wild oat, Avena fatua), pigweed, palmer (palmer amaranth, palmer pigweed, Amaranthus palmeri), Pigweed, Redroot (redroot pigweed, Amaranthus retroflexus), ragweed (common ragweed, Ambrosia artemisiifolia), ryegrass, Italian ([…] ryegrass, Lolium multiflorum), soybean (Glycine max), and wheat (Triticum aestivum) were planted into a blend of loam soil and sand and treated preemergence with a directed soil spray using test chemicals formulated in a non-phytotoxic solvent mixture which included a surfactant. At the same time, plants selected from these crops and weed species and also galium (catchweed bedstraw, Galium aparine) and horseweed (Erigeron canadensis) were planted in pots containing the same blend of loam soil and sand and treated with postemergence applications of test chemicals formulated in the same manner. Plants ranged in height from 2 to 10 cm and were in the one- to two-leaf stage for the postemergence treatment. Treated plants and untreated controls were maintained in a greenhouse for 10 days, after which time all treated plants were compared to untreated controls and visually evaluated for injury. Plant response ratings, summarized in Table C, are based on a 0 to 100 scale where 0 is no effect and 100 is complete control. A dash (-) response means no test result.
# [4] = test system: barnyardgrass; assay: Test C postemergence; type: in vivo, Echinochloa crusgalli; settings: 10 days, 0 to 100 scale (0 no effect, 100 complete control)
# In short: as §1
# [5] = test system: foxtail, giant; assay: Test C postemergence; type: in vivo, Setaria faberi; settings: 10 days, 0 to 100 scale (0 no effect, 100 complete control)
# Description: as §2
# [6] = test system: horseweed; assay: Test C postemergence; type: in vivo, Erigeron canadensis; settings: 10 days, 0 to 100 scale (0 no effect, 100 complete control)
# In short: as §1
# [7] = test system: soybean; assay: Test C preemergence; type: in vivo, Glycine max
# In short: as §1
# [8] = test system: pigweed, palmer; assay: Test C postemergence; type: in vivo, Amaranthus palmeri; settings: 10 days, 0 to 100 scale (0 no effect, 100 complete control)
# In short: as §1
# [9] = test system: soybean; assay: Test C postemergence; type: in vivo, Glycine max; settings: 10 days, 0 to 100 scale (0 no effect, 100 complete control)
# In short: as §1
# [10] = test system: wheat; assay: Test C preemergence; type: in vivo, Triticum aestivum
# In short: as §1
# [11] = test system: wheat; assay: Test C postemergence; type: in vivo, Triticum aestivum; settings: 10 days, 0 to 100 scale (0 no effect, 100 complete control)
# In short: as §1
# [12] = test system: blackgrass; assay: Test C preemergence; type: in vivo, Alopecurus myosuroides
# In short: as §1
# [13] = test system: pigweed, palmer; assay: Test C preemergence; type: in vivo, Amaranthus palmeri
# In short: as §1
# [14] = test system: sedge, umbrella; assay: Test D flooded paddy test; type: in vivo, Cyperus difformis; settings: 250 g ai/ha, applied to paddy water, visual rating after 13 to 14 days, scale 0 to 100 (0 no effect, 100 complete control)
# In short: (§3)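 2-leaf plants; flood 3 cm above soil; compound dosed into paddy water; greenhouse 13–14 d; visual rating vs controls, 0–100 (100 = complete control); dash = not tested.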
# [15] = test system: barnyardgrass; assay: Test C preemergence; type: in vivo, Echinochloa crusgalli
# In short: as §1
# [16] = test system: ducksalad; assay: Test D flooded paddy test; type: in vivo, Heteranthera limosa; settings: 250 g ai/ha, applied to paddy water, visual rating after 13 to 14 days, scale 0 to 100 (0 no effect, 100 complete control)
# In short: as §3
# [17] = test system: oat, wild; assay: Test C preemergence; type: in vivo, Avena fatua
# In short: as §1
# [18] = test system: kochia; assay: Test C preemergence; type: in vivo, Bassia scoparia
# In short: as §1
# [19] = test system: corn; assay: Test C postemergence; type: in vivo, Zea mays; settings: 10 days, 0 to 100 scale (0 no effect, 100 complete control)
# In short: as §1
# [20] = test system: barnyardgrass; assay: Test D flooded paddy test; type: in vivo, Echinochloa crus-galli; settings: 250 g ai/ha, applied to paddy water, visual rating after 13 to 14 days, scale 0 to 100 (0 no effect, 100 complete control)
# In short: as §3
# [21] = test system: rice; assay: Test D flooded paddy test; type: in vivo, Oryza sativa; settings: 250 g ai/ha, applied to paddy water, visual rating after 13 to 14 days, scale 0 to 100 (0 no effect, 100 complete control)
# In short: as §3
# [22] = test system: ryegrass, Italian; assay: Test C postemergence; type: in vivo, Lolium multiflorum; settings: 10 days, 0 to 100 scale (0 no effect, 100 complete control)
# In short: as §1
# [23] = test system: blackgrass; assay: Test C postemergence; type: in vivo, Alopecurus myosuroides; settings: 10 days, 0 to 100 scale (0 no effect, 100 complete control)
# In short: as §1
# [24] = test system: galium; assay: Test C postemergence; type: in vivo, Galium aparine; settings: 10 days, 0 to 100 scale (0 no effect, 100 complete control)
# In short: as §1
# [25] = test system: oat, wild; assay: Test C postemergence; type: in vivo, Avena fatua; settings: 10 days, 0 to 100 scale (0 no effect, 100 complete control)
# In short: as §1
# [26] = test system: corn; assay: Test C preemergence; type: in vivo, Zea mays
# In short: as §1
# [27] = test system: ragweed; assay: Test C preemergence; type: in vivo, Ambrosia artemisiifolia
# In short: as §1
# [28] = test system: ryegrass, Italian; assay: Test C preemergence; type: in vivo, Lolium multiflorum
# In short: as §1
# [29] = 500 g ai/ha, preemergence, 0 to 100 scale (0 no effect, 100 complete control)
# [30] = Preemergence, 125 g ai/ha, 0 to 100 scale, 0 no effect, 100 complete control
smiles,measurement,setting,value
"CC(C)c1ncn(-c2cc(C(=O)N3CC(C(F)(F)F)Oc4c(Cl)cccc43)ccn2)n1 (single isomer, unassigned) [Compound 330]","Plant response rating, Kochia","[1]; 500 g ai/ha, postemergence",100
same,"Plant response rating, Kochia","[1]; Postemergence, 125 g ai/ha",80
same,"Plant response rating, Ragweed","[2]; 500 g ai/ha, postemergence",40
same,"Plant response rating, Ragweed","[2]; Postemergence, 125 g ai/ha",30
same,"Foxtail, Giant plant response rating",[3]; [29],100
same,"Plant response rating, Foxtail, Giant",[3]; [30],100
same,"Plant response rating, Barnyardgrass","[4]; 500 g ai/ha, postemergence",70
same,"Plant response rating, Barnyardgrass","[4]; Postemergence, 125 g ai/ha",50
same,"Plant response rating, Foxtail, Giant","[5]; 500 g ai/ha, postemergence",90
same,"Plant response rating, Foxtail, Giant","[5]; Postemergence, 125 g ai/ha",50
same,"Plant response rating, Horseweed","[6]; 500 g ai/ha, postemergence",20
same,"Plant response rating, Horseweed","[6]; Postemergence, 125 g ai/ha",0
same,Soybean plant response rating,[7]; [29],80
same,"Plant response rating, Soybean",[7]; [30],40
same,"Plant response rating, Pigweed, Palmer","[8]; 500 g ai/ha, postemergence",100
same,"Plant response rating, Pigweed, Palmer","[8]; Postemergence, 125 g ai/ha",70
same,"Plant response rating, Soybean","[9]; 500 g ai/ha, postemergence",100
same,"Plant response rating, Soybean","[9]; Postemergence, 125 g ai/ha",100
same,Wheat plant response rating,[10]; [29],30
same,"Plant response rating, Wheat",[10]; [30],20
same,"Plant response rating, Wheat","[11]; 500 g ai/ha, postemergence",30
same,"Plant response rating, Wheat","[11]; Postemergence, 125 g ai/ha",20
same,Blackgrass plant response rating,[12]; [29],90
same,"Plant response rating, Blackgrass",[12]; [30],70
same,"Pigweed, Palmer plant response rating",[13]; [29],100
same,"Plant response rating, Pigweed, Palmer",[13]; [30],100
same,"Plant response rating, Sedge, Umbrella (Flood)",[14],0
same,Barnyardgrass plant response rating,[15]; [29],100
same,"Plant response rating, Barnyardgrass",[15]; [30],70
same,"Plant response rating, Ducksalad (Flood)",[16],0
same,"Oat, Wild plant response rating",[17]; [29],60
same,"Plant response rating, Oat, Wild",[17]; [30],30
same,Kochia plant response rating,[18]; [29],90
same,"Plant response rating, Kochia",[18]; [30],30
same,"Plant response rating, Corn","[19]; 500 g ai/ha, postemergence",90
same,"Plant response rating, Corn","[19]; Postemergence, 125 g ai/ha",70
same,"Plant response rating, Barnyardgrass (Flood)",[20],0
same,"Plant response rating, Rice (Flood)",[21],0
same,"Plant response rating, Ryegrass, Italian","[22]; 500 g ai/ha, postemergence",90
same,"Plant response rating, Ryegrass, Italian","[22]; Postemergence, 125 g ai/ha",40
same,"Plant response rating, Blackgrass","[23]; 500 g ai/ha, postemergence",90
same,"Plant response rating, Blackgrass","[23]; Postemergence, 125 g ai/ha",40
same,"Plant response rating, Galium","[24]; 500 g ai/ha, postemergence",100
same,"Plant response rating, Galium","[24]; Postemergence, 125 g ai/ha",100
same,"Plant response rating, Oat, Wild","[25]; 500 g ai/ha, postemergence",70
same,"Plant response rating, Oat, Wild","[25]; Postemergence, 125 g ai/ha",30
same,Corn plant response rating,[26]; [29],60
same,"Plant response rating, Corn",[26]; [30],10
same,Ragweed plant response rating,[27]; [29],50
same,"Plant response rating, Ragweed",[27]; [30],0
same,"Ryegrass, Italian plant response rating",[28]; [29],100
same,"Plant response rating, Ryegrass, Italian",[28]; [30],100
